Values after ≈ are worked out from the molar mass of the structure shown.
How the values were obtained:
[1] = system: S. cerevisiae (yeast); assay: Spectrophotometry (OD600) monitoring of antifungal drug effects on yeast; assay type: cell-based; details: patent calls the identification incorrect
Source text: (§1) The result using various embodiments in this patent document accurately detects both drug effects in a rapid manner.
(§2) This is due to the fact that the spectroscopic method relies on light absorption by the suspended cells, and dead yeast cells remain in suspension, thus contributing to the absorption.

[2] = system: S. cerevisiae (yeast); assay: MZOnano-QCM monitoring of antifungal drug effects on yeast; assay type: cell-based; details: drug introduced at 330 min after initial growth seeding
Source text: as §1, §2

[3] = system: VP16-sensitive ALL cell line (CEM); assay: MZOnano-QCM 48-hour monitoring of drug sensitive ALL (CEM) cells; assay type: cell-based
Experimental: (§3) The third example uses the drug VP16 (also known as etoposide, an anticancer agent), VP16-sensitive ALL cell line (CEM) and its VP16-resistant derivative cell line (CEM-V1) as a model for monitoring the effect of anticancer agents on the growth of cancer cells using the MZOnano-QCM sensor device, where the Mg composition x in MZO is 0.03.
For all of the experiments in this example, an initial seeding density of 4×10^5 cells in 2 mL of medium is used, the leukemia cell growth using the MZOnano-QCM is monitored dynamically for 48 hours. The drug (VP16) was introduced into the cell culture after 4 hours after the initial seeding. With reference to FIG. 7, the time-dependent frequency shift of the sensor for the entire 48-hour monitoring period of the drug sensitive CEM cells is shown. In the no-drug case, the frequency shift increases exponentially from 0-40 hours (indicating exponential cell accumulation on the sensing area) and then the frequency shift rate decreases showing saturation of the cell growth. In the case where the drug is introduced into the cell culture in the device, it is observed that the cells continue to grow after the drug has been introduced (4 hours after initial seeding), however, it is seen that the drug has taken effect 16 hours after the drug has been introduced.

[4] = system: VP16-resistant derivative cell line (CEM-V1); assay: MZOnano-QCM 48-hour monitoring of drug resistant ALL (CEM-V1) cells; assay type: cell-based
Source text: as §3
The same experiment can be repeated on drug resistant CEM leukemia cells (CEM-V1) using both the MZOnano-QCM sensor and the viability analyzer, and the monitoring can be conducted for 48 hours. […] The drug was added into the cell culture at 4 hours after the initial seeding of 4×10^5 cells. […] The various configurations used in the example in FIG. 11 are the same as those described with respect to FIG. 8, and the various configurations used in the example in FIG. 12 are the same as those described with respect to FIG. 9.

[5] = system: resistant E. coli; assay: MZOnano-QCM detection of antimicrobial resistance of resistant E. coli; assay type: cell-based; details: ampicillin-resistant cells, 256 μg/mL
Experimental: (§4) The first example illustrates the application of a magnesium zinc oxide (MZO) nanostructure-modified quartz crystal microbalance (MZOnano-QCM) biosensor disclosed in this document with reference to FIGS. 1A and 1B to dynamically monitor antibiotic effects on sensitive and resistant E. coli cells. MZO-nanostructures were grown on a standard QCM top-electrode using metal-organic chemical-vapor deposition. ZnO and MZO nanostructured-films are chosen for their multi-functionality and biocompatibility. Their surface-wettability and morphology can be controlled, offering high-sensitivity to various biological/biochemical species. MZO can withstand a larger pH range than ZnO does. Combining advantages of MZO nanostructures with the dynamic impedance spectrum capability of QCM makes MZOnano-QCM a highly-sensitive dynamic biosensor well-suited for AMR detection. The growth of E. coli on ZnO and MZO nanostructures was determined by 90-minute incubation.
(§5) FIGS. 4A-4D show the detection of antibiotic effects on E. coli using regular QCM, ZnOnano-QCM and MZOnano-QCM. The regular QCM failed detection due to low sensitivity while both ZnOnano- and MZOnano-QCM enable accurate detection of bacterial count during active growth though frequency shifts (Δf). The MZOnano-QCM offered four-fold higher sensitivity than ZnOnano-QCM. […]

[6] = system: antibiotic-sensitive E. coli; assay: MZOnano-QCM detection of antibiotic effects on sensitive E. coli; assay type: cell-based; details: ampicillin-sensitive cells, 256 μg/mL
Experimental: as §4, §5

[7] = system: P. aeruginosa; details: FIG. 15(b)
Experimental: The sensor was placed inside an incubator at 37° C. while automatically measuring the acoustic spectrum every 15 minutes for 3 hours.

[8] = system: S. epidermidis; assay: Standard broth dilution assay (MIC), S. epidermidis; assay type: cell-based; details: Staphylococcus epidermidis

C[C@@H]1[C@H](O)[C@@H](C)/C=C/C=C/C=C/C=C/C=C/C=C/C=C/[C@H](O[C@@H]2O[C@H](C)[C@@H](O)[C@H](N)[C@@H]2O)C[C@@H]2O[C@](O)(C[C@@H](O)C[C@@H](O)[C@H](O)CC[C@@H](O)C[C@@H](O)CC(=O)O[C@H]1C)C[C@H](O)[C@H]2C(=O)O [amphotericin]
drug effect on yeast as identified by OD600 method [1]: fungi-static | drug effect on yeast detected by sensor [2]: cell-killing effects

COc1cc([C@@H]2c3cc4c(cc3[C@@H](O[C@@H]3O[C@@H]5CO[C@@H](C)O[C@H]5[C@H](O)[C@H]3O)[C@H]3COC(=O)[C@H]23)OCO4)cc(OC)c1O [VP16, etoposide]
cell response (frequency shift) after drug took effect ([3]; 20 hours to 48 hours): cells start to die (or stop to proliferate) | time after drug introduction at which drug has taken effect ([3]; drug introduced 4 hours after initial seeding of 4×10^5 cells): 16 h | cell response (frequency shift trend) in the presence of the drug ([4]; 48 hours monitoring): continuous cell growth | time after addition of drug at which frequency shift started to decrease compared to no-drug control ([4]; drug added 4 hours after initial seeding of 4×10^5 cells): ~15 h

Clc1ccc(COC(Cn2ccnc2)c2ccc(Cl)cc2Cl)c(Cl)c1 (stereo not drawn) [miconazole]
drug effect on yeast detected by sensor [2]: growth inhibition effects

CC1(C)S[C@@H]2[C@H](NC(=O)[C@H](N)c3ccccc3)C(=O)N2[C@H]1C(=O)O [ampicillin]
Δf response upon treatment [5]: continued increasing | time within which Δf declined upon treatment [6]: ≤ 10 min | time within which Δf stopped increasing upon treatment [6]: ≤ 5 min

O=C(O)c1cn(C2CC2)c2cc(N3CCNCC3)c(F)cc2c1=O [ciprofloxacin]
motional resistance in presence or absence of drug [7]: dramatically different | MIC [8]: 0.05 µg/mL (≈ 0.151 µM)

— patent US10801879B2, “Magnesium zinc oxide nanostructure modified biosensor and monitoring of response of cell population to an agent using the same” (Rutgers, The State University of New Jersey, priority 2015, dated 2020)
